Source: ChEMBL document CHEMBL3525932, “Comparison of metabolism of sesamin and episesamin by drug-metabolizing enzymes in human liver” (Drug Metab Dispos, 2012)

Experiments:
[1] = molecular target: T1, Cytochrome P450 2C19 (Homo sapiens, UniProt P33261); experiment: Activity of recombinant human CYP2C19 expressed in Saccharomyces cerevisiae AH22 cells assessed as enzyme-mediated compound formation treated with sesamin at 2 to 20 uM after 15 mins by HPLC analysis in presence of NADPH; assay type: ADME, cell-based; conditions: ah22, 0.25 h
T1 sequence (P33261 whole entry): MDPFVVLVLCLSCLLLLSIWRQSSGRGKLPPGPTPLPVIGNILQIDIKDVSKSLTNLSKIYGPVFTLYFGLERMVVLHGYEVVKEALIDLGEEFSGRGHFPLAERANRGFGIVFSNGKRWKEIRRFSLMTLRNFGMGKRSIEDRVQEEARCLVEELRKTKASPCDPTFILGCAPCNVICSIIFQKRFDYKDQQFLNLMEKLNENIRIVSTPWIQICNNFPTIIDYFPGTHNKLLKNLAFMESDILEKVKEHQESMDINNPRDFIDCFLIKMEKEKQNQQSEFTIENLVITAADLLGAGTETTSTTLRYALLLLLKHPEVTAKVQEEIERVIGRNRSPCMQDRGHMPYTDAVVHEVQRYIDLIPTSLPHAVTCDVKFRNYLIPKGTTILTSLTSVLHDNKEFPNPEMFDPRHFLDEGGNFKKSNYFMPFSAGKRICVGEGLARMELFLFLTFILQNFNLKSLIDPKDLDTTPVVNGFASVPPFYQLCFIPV

[2] = molecular target: T1, Cytochrome P450 2C19; experiment: Activity of recombinant human CYP2C19 expressed in Saccharomyces cerevisiae AH22 cells assessed as enzyme-mediated compound formation treated with episesamin at 2 to 75 uM after 15 mins by HPLC analysis in presence of NADPH; assay type: ADME, cell-based; conditions: ah22, 0.25 h
[3] = molecular target: T2, Cytochrome P450 1A2 (Homo sapiens, UniProt P05177); experiment: Activity of recombinant human CYP1A2 expressed in Saccharomyces cerevisiae AH22 cells assessed as enzyme-mediated compound formation treated with (R)-episesamin monocatechol at 1 to 30 uM after 15 mins by HPLC analysis in presence of NADPH; assay type: ADME, cell-based; conditions: ah22, 0.25 h
T2 sequence (P05177 whole entry): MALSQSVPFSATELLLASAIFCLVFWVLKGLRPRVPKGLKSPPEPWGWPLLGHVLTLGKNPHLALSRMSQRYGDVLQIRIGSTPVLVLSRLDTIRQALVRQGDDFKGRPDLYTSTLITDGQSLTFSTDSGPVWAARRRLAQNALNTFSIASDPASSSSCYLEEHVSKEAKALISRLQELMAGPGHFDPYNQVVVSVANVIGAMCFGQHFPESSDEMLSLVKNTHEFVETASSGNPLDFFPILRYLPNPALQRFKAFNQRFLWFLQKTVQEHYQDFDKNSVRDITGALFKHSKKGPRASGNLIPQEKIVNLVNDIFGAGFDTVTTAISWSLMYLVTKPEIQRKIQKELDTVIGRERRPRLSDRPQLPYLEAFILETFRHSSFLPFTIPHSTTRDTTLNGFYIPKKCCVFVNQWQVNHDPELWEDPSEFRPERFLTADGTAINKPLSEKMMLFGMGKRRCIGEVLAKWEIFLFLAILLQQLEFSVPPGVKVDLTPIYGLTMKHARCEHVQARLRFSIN

[4] = molecular target: T3, Cytochrome P450 2C9 (Homo sapiens, UniProt P11712); experiment: Activity of recombinant human CYP2C9 expressed in Saccharomyces cerevisiae AH22 cells assessed as enzyme-mediated compound formation treated with (S)-episesamin monocatechol at 1 to 30 uM after 15 mins by HPLC analysis in presence of NADPH; assay type: ADME, cell-based; conditions: ah22, 0.25 h
T3 sequence (P11712 whole entry): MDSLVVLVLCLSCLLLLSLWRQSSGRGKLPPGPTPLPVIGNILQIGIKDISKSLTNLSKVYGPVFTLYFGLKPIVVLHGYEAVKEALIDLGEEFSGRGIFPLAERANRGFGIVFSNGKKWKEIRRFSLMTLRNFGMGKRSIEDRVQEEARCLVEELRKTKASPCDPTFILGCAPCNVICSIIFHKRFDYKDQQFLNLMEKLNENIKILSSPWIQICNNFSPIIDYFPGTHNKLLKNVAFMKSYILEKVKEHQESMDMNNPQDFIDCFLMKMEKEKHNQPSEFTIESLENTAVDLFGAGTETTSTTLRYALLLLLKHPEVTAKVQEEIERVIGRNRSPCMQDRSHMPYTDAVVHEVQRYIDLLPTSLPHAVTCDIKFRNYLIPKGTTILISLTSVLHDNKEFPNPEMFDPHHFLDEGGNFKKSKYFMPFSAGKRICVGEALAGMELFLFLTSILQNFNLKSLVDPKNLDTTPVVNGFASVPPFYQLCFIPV

[5] = molecular target: T2, Cytochrome P450 1A2; experiment: Activity of recombinant human CYP1A2 expressed in Saccharomyces cerevisiae AH22 cells assessed as enzyme-mediated compound formation treated with (S)-episesamin monocatechol at 1 to 30 uM after 15 mins by HPLC analysis in presence of NADPH; assay type: ADME, cell-based; conditions: ah22, 0.25 h
[6] = molecular target: T3, Cytochrome P450 2C9; experiment: Activity of recombinant human CYP2C9 expressed in Saccharomyces cerevisiae AH22 cells assessed as enzyme-mediated compound formation treated with (R)-episesamin monocatechol at 1 to 30 uM after 15 mins by HPLC analysis in presence of NADPH; assay type: ADME, cell-based; conditions: ah22, 0.25 h
[7] = molecular target: T2, Cytochrome P450 1A2; experiment: Activity of recombinant human CYP1A2 expressed in Saccharomyces cerevisiae AH22 cells assessed as enzyme-mediated episesamin dicatechol formation after 15 mins by HPLC analysis in presence of NADPH; assay type: ADME, cell-based; conditions: ah22, 0.25 h
[8] = tested on: Liver microsome; experiment: Drug level in human liver microsomes treated with episesamin at 2 to 75 uM after 15 mins by HPLC analysis in presence of NADPH; assay type: ADME; conditions: 0.25 h
[9] = Drug metabolism in Sprague-Dawley rat liver microsomes assessed as CYP450-mediated catecholization per mg of protein after 10 to 30 mins by HPLC analysis in presence of NADPH; assay type: ADME
[10] = tested on: CYP450; experiment: Drug metabolism in Sprague-Dawley rat liver microsomes assessed as CYP450-mediated catecholization after 10 to 30 mins by HPLC analysis in presence of NADPH; assay type: ADME
[11] = tested on: UGT; experiment: Drug metabolism in human liver microsomes assessed as UGT-mediated glucuronidation after 10 to 30 mins by HPLC analysis in presence of UDP-GlcUA; assay type: ADME
[12] = Drug metabolism in Sprague-Dawley rat liver microsomes assessed as UGT-mediated glucuronidation per mg of protein after 10 to 30 mins by HPLC analysis in presence of UDP-GlcUA; assay type: ADME
[13] = Drug metabolism in human liver microsomes assessed as CYP450-mediated catecholization per mg of protein after 10 to 30 mins by HPLC analysis in presence of NADPH; assay type: ADME
[14] = molecular target: T4, UDP-glucuronosyltransferase 2B7 (Homo sapiens, UniProt P16662); experiment: Activity of recombinant human UGT2B7 expressed in baculovirus infected insect cells assessed as enzyme-mediated glucuronidation at 1 to 30 uM after 10 to 30 mins by HPLC analysis in presence of UDP-GlcUA; assay type: ADME
T4 sequence (P16662 whole entry): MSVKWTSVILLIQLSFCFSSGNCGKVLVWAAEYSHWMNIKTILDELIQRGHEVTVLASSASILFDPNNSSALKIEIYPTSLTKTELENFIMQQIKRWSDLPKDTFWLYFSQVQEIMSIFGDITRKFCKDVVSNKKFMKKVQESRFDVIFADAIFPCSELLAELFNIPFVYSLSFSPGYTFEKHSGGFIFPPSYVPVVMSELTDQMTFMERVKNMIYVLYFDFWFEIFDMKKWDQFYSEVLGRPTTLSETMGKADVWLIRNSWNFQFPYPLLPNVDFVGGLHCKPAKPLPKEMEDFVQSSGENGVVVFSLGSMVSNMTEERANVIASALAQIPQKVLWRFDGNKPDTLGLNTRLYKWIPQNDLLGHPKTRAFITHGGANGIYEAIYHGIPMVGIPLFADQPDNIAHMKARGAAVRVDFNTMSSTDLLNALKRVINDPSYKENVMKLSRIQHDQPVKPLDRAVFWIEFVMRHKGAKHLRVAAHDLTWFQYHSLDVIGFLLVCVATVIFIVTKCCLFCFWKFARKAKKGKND

[15] = tested on: Liver microsome; experiment: Drug level in human liver microsomes treated with episesamin at 5 uM after 30 mins by HPLC analysis in presence of NADPH; assay type: ADME; conditions: 0.5 h
[16] = molecular target: T1, Cytochrome P450 2C19; experiment: Activity of recombinant human CYP2C19 expressed in Saccharomyces cerevisiae AH22 cells assessed as enzyme-mediated episesamin dicatechol formation after 15 mins by HPLC analysis in presence of NADPH; assay type: ADME, cell-based; conditions: ah22, 0.25 h
[17] = Drug metabolism in human liver microsomes assessed as UGT-mediated glucuronidation per mg of protein after 10 to 30 mins by HPLC analysis in presence of UDP-GlcUA; assay type: ADME
[18] = tested on: UGT; experiment: Drug metabolism in Sprague-Dawley rat liver microsomes assessed as UGT-mediated glucuronidation after 10 to 30 mins by HPLC analysis in presence of UDP-GlcUA; assay type: ADME
[19] = tested on: CYP450; experiment: Drug metabolism in human liver microsomes assessed as CYP450-mediated catecholization after 10 to 30 mins by HPLC analysis in presence of NADPH; assay type: ADME
[20] = molecular target: T3, Cytochrome P450 2C9; experiment: Activity of recombinant human CYP2C9 expressed in Saccharomyces cerevisiae AH22 cells assessed as enzyme-mediated episesamin dicatechol formation after 15 mins by HPLC analysis in presence of NADPH; assay type: ADME, cell-based; conditions: ah22, 0.25 h
[21] = molecular target: T3, Cytochrome P450 2C9; experiment: Activity of recombinant human CYP2C9 expressed in Saccharomyces cerevisiae AH22 cells assessed as enzyme-mediated compound formation treated with episesamin at 2 to 75 uM after 15 mins by HPLC analysis in presence of NADPH; assay type: ADME, cell-based; conditions: ah22, 0.25 h
[22] = molecular target: T2, Cytochrome P450 1A2; experiment: Activity of recombinant human CYP1A2 expressed in Saccharomyces cerevisiae AH22 cells assessed as enzyme-mediated compound formation treated with episesamin at 2 to 75 uM after 15 mins by HPLC analysis in presence of NADPH; assay type: ADME, cell-based; conditions: ah22, 0.25 h

Row | Drug metabolism [2] | Drug metabolism [7] | Drug metabolism [8] | Km [10] | Km [11] | Vmax [12] | Vmax [13] | Drug metabolism [14] | Drug metabolism [15] | Drug metabolism [16] | Vmax [17] | Km [18] | Km [19] | Drug metabolism [20] | SMILES | also measured
1 | – | – | – | – | – | – | – | – | – | – | – | – | – | – | Oc1ccc([C@H]2OC[C@H]3[C@@H]2CO[C@@H]3c2ccc(O)c(O)c2)cc1O | Drug metabolism [1]: metabolite_detected
2 | metabolite_detected | – | – | – | – | – | – | – | – | – | – | – | – | – | Oc1ccc([C@H]2OC[C@H]3[C@@H]2CO[C@H]3c2ccc(O)c(O)c2)cc1O | Drug metabolism [3]: metabolite_detected; Drug metabolism [4]: metabolite_detected; Drug metabolism [5]: metabolite_detected; Drug metabolism [6]: metabolite_detected
3 | metabolite_detected | 0.38 nmol/min | metabolite_detected | 2.9 µM | 9.9 µM | 4.4 nmol/min/mg | 0.28 nmol/min/mg | metabolite_detected | metabolite_detected | 9.4 nmol/min | 0.55 nmol/min/mg | 16.8 µM | 4100 nM | 0.19 nmol/min | Oc1ccc([C@H]2OC[C@H]3[C@@H]2CO[C@H]3c2ccc3c(c2)OCO3)cc1O | Vmax [9]: 1.9 nmol/min/mg
4 | metabolite_detected | 0.38 nmol/min | metabolite_detected | 8.7 µM | 8.6 µM | 0.55 nmol/min/mg | 0.15 nmol/min/mg | metabolite_detected | metabolite_detected | 9.4 nmol/min | 0.68 nmol/min/mg | 9.9 µM | 1800 nM | 0.19 nmol/min | Oc1ccc([C@@H]2OC[C@H]3[C@@H]2CO[C@@H]3c2ccc3c(c2)OCO3)cc1O | Drug metabolism [21]: metabolite_detected; Drug metabolism [22]: metabolite_detected
